Data set [1] relates to L. donovani axenic amastigotes. Description: Concentration-response EC50, L. donovani axenic amastigotes. It is filed as cell-based. The note with it: Leishmania donovani. From the text: The four lanosterone-like sterols derived from the Noble Fir Abies procera (700022, 700107, 700136) and the Grand Fir Abies grandis (700240) were the only initial compounds taken forward for L. mexicana due to their nanomolar activity and apparent low cytotoxicity (Figure 3a). […] Understanding the impact of the ring-opened lactone head group in this compound compared to the other three warrants further analysis in exploring their structure-activity relationships. These four sterols were also tested for growth inhibitory activity against L. donovani axenic amastigotes. […] As Leishmania spp. amastigotes typically reside with macrophages, further cytotoxicity assays with these sterols were performed against an activated monocyte cell line (THP-1) (Figure 4b).

Data set [2] deals with 700022-resistant line of L. mexicana (r22) axenic amastigotes. Description: EC50 in 700022-resistant L. mexicana (r22) axenic amastigotes. It is filed as cell-based, Leishmania mexicana. The note with it: for r22 8 weeks RI (resistance index, EC50 in r22/EC50 in WT): 8 weeks of 700022 selection pressure. The procedure:
A 700022-resistant line of L. mexicana (r22) was generated using a previously reported method (Figure S3). […] All leishmanicidal sterols identified were assayed against r22 after 8 weeks of 700022 pressure and cross-resistance was found against all four compounds, each with a similar resistance index of between 4–5 (Figure 6c). Following 28 weeks of selection, the morphology of the r22 promastigotes was compared to that of WT (Figure 6d). […] The body area of both promastigotes and amastigotes was also assessed, noting a small (c 20%) decrease in the body area of r22 parasites compared to WT strains (Figure S3).
Figure 6 Comparison between wildtype and 700022-resistant (r22) L. mexicana cell lines. Log concentration versus normalised (compared to untreated control) growth curves for wildtype (WT) and corresponding 700022-selected (r22) L. mexicana (a) promastigotes and (b) axenic amastigotes. Error bars represent upper and lower limits of the StDev (n = 9). […] The resistance index (EC50 in r22/EC50 in WT) are shown for each compound. (d) Scanning electron micrographs of WT and r22 promastigotes illustrating the shortened flagellum in r22 parasites. (e) Analysis of flagellum length in WT and r22 promastigotes (n = 287 of each strain) reported using a box and whisker plot (boxes represents the 25–75th percent distribution with the mean as a horizontal line, whiskers represent the distribution of all values) with a statistically significant difference (Mann–Whitney U test, p-value < 2.2 × 10^−16). […] Error bars represent upper and lower limits of the StDev (n = 9). […] The resistance index (EC50 in r22/EC50 in WT) are shown for each compound. TEXT PRINTED IN THE PICTURE: (c) 700022: 4.1 | (c) 700107: 4.1 | (c) 700136: 5.3 | (c) 700240: 5.3 | (f) 700022: 42.1 | (f) Milt: 17.9 | (f) Pent: 0.75 | (f) AmpB: 1.22 DOUBTS OF THE COPYIST ABOUT THIS PICTURE: Panels c and f: the numbers printed above the bar pairs have no measure or unit printed with them in the picture.
L. mexicana parasites were grown in increasing concentrations of 700022 in a stepwise manner, as previously described. […] A dose response assay of the newly selected promastigotes was completed as stated above, with the exception of the seeding density of 1 × 10^5 cells/mL. At this point, the drug pressure was increased to the concentration of the new EC50 value.

The next data set deals with T. brucei. Description: Concentration-response EC50, T. brucei. Format: cell-based, Trypanosoma brucei brucei. As to conditions: 48 h.
Another data set relates to T. evansi. Description: Concentration-response EC50, T. evansi. Format: cell-based. As to conditions: Trypanosoma evansi, 48 h, read-out: T. evansi EC50.
A further data set deals with P. falciparum Dd2Luc. Description: Concentration-response EC50, P. falciparum Dd2Luc. Format: cell-based, Plasmodium falciparum. The note with it: 48 h.
The subject of the next data set is P. falciparum 3D7. Description: Concentration-response EC50, P. falciparum 3D7. Format: cell-based. The note with it: Plasmodium falciparum. The source says: This is not surprising as the rate of kill is a result of the mechanism of cell death and, given their structural similarity, these three bisobolane sesquiterpene glycosides likely share the same target(s), albeit with some differences in affinity. The rate of kill, relatively, falls between that of atovaquone and dihydroartemisinin and is more similar to that of chloroquine.

Data set [3] relates to activated monocyte cell line (THP-1). Description: Cytotoxicity CC50, differentiated THP-1, Alamar Blue. It is filed as cell-based, human. The note with it: for CC50: differentiated THP-1, 48 h, read-out: THP1 CC50. On the technique in general: Alamar Blue is a resazurin reagent that responds to reducing activity.
Setting [4] is: Leishmania mexicana, read-out: r22 8 weeks EC50, r22 after 8 weeks of 700022 selection pressure.
Where [5] appears, read: Trypanosoma brucei, read-out: T. brucei EC50, bloodstream form, 48 h.
The mark [6] stands for this setting: Plasmodium falciparum, read-out: P. falciparum Dd2Luc EC50, intraerythrocytic, 48 h.
[7] abbreviates: 3D7, read-out: P. falciparum 3D7 EC50.

pEC50: −log10 of the molar value. Read-outs that look alike come from different tables or passages of the source.

From the text for P. falciparum Dd2Luc: (§1) Initial hits from the parasite panel screen were taken forward in log concentration versus normalised response assays to estimate the half maximal effective concentration (EC50) in hit species as well as the half maximal cytotoxic concentrations (CC50) in the human hepatoma cell line HepG2 as a preliminary test for selectivity. Using CC50/EC50 to define the selectivity index (SI), the selectivity for each compound in a defined species compared to a human cell line was estimated and compared to the EC50 (Figure 3).
(§2) EC50 values were determined by serial two-fold dilution of each compound in 96 well plates. Culture conditions and viability assays were as stated for the initial screen, with some exceptions. L. mexicana and L. donovani axenic amastigotes were seeded at 2 × 10^6 cell/s mL, T. brucei and T. evansi were seeded at 2 × 10^5 cells/mL. For cytotoxicity studies, HepG2 cells were seeded at 1 × 10^5 cells/mL, incubated for 48 h and viability was assessed using the Alamar Blue assay [66, 67]. […] Normalised growth and viability data (compared to untreated controls) were plotted against Log10 concentration to estimate EC50 in GraphPad (Prism v6).
From the text for T. evansi: as §1, §2

As a reminder, the pEC50 is the EC50 on a negative log10 scale, so that one unit is a factor of ten. On to `CC1=CC(O)(CC(C)C2(C)CC=C3C4=CCC5C(C)(C)C(O)CCC5(C)C4CCC32C)OC1=O` (stereo not shown) [Compound 700022], for which the pEC50 in data set [1] was 6.85; in data set [2] (setting [4]), 6.00; in data set [2] (Leishmania mexicana, read-out: r22 28 weeks EC50, r22 after 28 weeks of 700022 selection pressure), 5.00; in data set [2] (read-out: r22 28 weeks EC50, r22 after 28 weeks of 700022 selection pressure), 5.00. Besides, the “r22 8 weeks RI (resistance index, EC50 in r22/EC50 in WT)” value in data set [2] worked out at 4.1.
With `CC1OC(OC2C(OC(=O)C3CC[C@@H]4[C@H](C3)OC3(CC(OC(=O)/C=C/c5ccccc5)[C@@H](C)CO3)C43CO3)OC(CO)C(O)C2O)C(O)C(O)C1O` (stereo partly shown) [Compound 700042], the pEC50 with T. brucei (setting [5]) was 6.39; with T. evansi, 6.21; in the data set on P. falciparum Dd2Luc (setting [6]) it was 6.55; with P. falciparum 3D7 (setting [7]), 6.72.
In the case of `CC1=CC(O)(CC(C)C2(C)CCC3C4=CCC5C(C)(CCC(O)C5(C)C)C4=CCC32C)OC1=O` (stereo not shown) [Compound 700107], the pEC50 is 6.59 in data set [1] and 5.96 in data set [2] (setting [4]). Moreover, in data set [2], the “r22 8 weeks RI (resistance index, EC50 in r22/EC50 in WT)” value came out at 4.1.
As for `CC1=CC(O)(CC(C)C2(C)CC=C3C4=CCC5C(C)(C)C(=O)CCC5(C)C4CCC32C)OC1=O` (stereo not shown) [Compound 700136], the values for the pEC50 in data set [1] and in data set [2] (setting [4]) were 6.80 and 5.96, respectively. For the same molecule, the “r22 8 weeks RI (resistance index, EC50 in r22/EC50 in WT)” value in data set [2] was 5.3.
For orientation: CC50 means the concentration giving 50% cytotoxicity. On to `C/C(=C/C(=O)CC(C)C1CCC2(C)C3=CCC4C(C)(C)C(=O)CCC4(C)C3CCC12C)C(=O)O` (stereo not shown) [Compound 700240], for which the values for the pEC50 in data set [1] and in data set [2] (setting [4]) were 6.47 and 5.57, respectively. Also, the “selectivity index (THP-1 CC50 / L. mexicana EC50)” value in data set [3] (L. mexicana compared to THP-1) is listed as 21. In data set [3], the CC50 worked out at 14000 nM. The “r22 8 weeks RI (resistance index, EC50 in r22/EC50 in WT)” value in data set [2] worked out at 5.3.
`C=C1C(=O)OC2CC(C)C3C=CC(=O)C3(C)C(OC(C)=O)C12` (stereo not shown) [Compound 701155]: the pEC50 in the data set with T. brucei (read-out: T. brucei EC50, bloodstream form) is 6.82; in the data set with T. evansi it was 6.87; in the data set on P. falciparum Dd2Luc (setting [6]), 5.80; in the data set on P. falciparum 3D7 (setting [7]), 5.54. In addition, the CC50 in data set [3] is 380 nM.
Regarding `C=C1C(=O)OC2CC(C)C3C=CC(=O)C3(C)C(OC(=O)C(C)C)C12` (stereo not shown) [Compound 701157], the pEC50 with T. brucei (setting [5]) is 6.54; in the data set on T. evansi, 6.72; in the data set on P. falciparum Dd2Luc (setting [6]), 5.74; in the data set on P. falciparum 3D7 (setting [7]), 5.68.
Regarding `C=C1C(=O)OC2CC(C)C3C=CC(=O)C3(C)C(OC(=O)C(C)CC)C12` (stereo not shown) [Compound 701158], the pEC50 was 6.51 in the data set with T. brucei (setting [5]); 6.61 with T. evansi; roughly 6.00 in the data set on P. falciparum Dd2Luc (setting [6]); 5.80 with P. falciparum Dd2Luc (read-out: P. falciparum Dd2Luc EC50, intraerythrocytic); 5.82 with P. falciparum 3D7 (setting [7]).
Turning to `C=C1C(=O)OC2CC(C)C3C(OC)CC(=O)C3(C)C(OC(=O)C(C)CC)C12` (stereo not shown) [Compound 701159], the pEC50 in the data set with T. brucei (Trypanosoma brucei, bloodstream form, read-out: T. brucei EC50) is 6.41; in the data set on P. falciparum Dd2Luc (setting [6]) it was 5.35; in the data set with P. falciparum 3D7 (3D7, intraerythrocytic, read-out: P. falciparum 3D7 EC50), 5.34.

The values are drawn from publication PMC7998250, “Temperate Zone Plant Natural Products—A Novel Resource for Activity against Tropical Parasitic Diseases” (Pharmaceuticals, 2021).
